This is an account of results in PMC5218480 (PLoS ONE, 2017).

In this assay the test system is MV-4-11 cells. The assay is described as follows: Gene expression microarray analysis (Affymetrix PrimeView) and GSEA. It is filed as cell-based, human. Also on record: RFU PODN (11730768_x_at) / Fold change /veh PODN (11730768_x_at) / RFU LINC00158 (11744669_a_at) / Fold change /veh LINC00158 (11744669_a_at) / RFU DUSP10 (11751237_a_at) / Fold change /veh DUSP10 (11751237_a_at) / RFU ID3 (11757404_x_at) / Fold change /veh ID3 (11757404_x_at) / RFU PLEKHG5 (11737974_s_at) / Fold change /veh PLEKHG5 (11737974_s_at) / RFU LRRC4B (11730491_at) / Fold change /veh LRRC4B (11730491_at) / RFU GIMAP4 (11747438_a_at) / Fold change /veh GIMAP4 (11747438_a_at) / RFU KRT8 (11758183_x_at) / Fold change /veh KRT8 (11758183_x_at) / RFU CNN1 (11734310_a_at) / Fold change /veh CNN1 (11734310_a_at) / RFU VPS37D (11726825_at) / Fold change /veh VPS37D (11726825_at) / RFU C10orf10 (11716522_x_at) / Fold change /veh C10orf10 (11716522_x_at) / RFU KIR2DL2 /// KIR2DL4 /// KIR2DL5A /// KIR2DL5B /// KIR2DS1 /// KIR2DS2 /// KIR2DS3 /// KIR2DS4 /// KIR3DL3 /// KIR3DL3 /// KIR3DS1 (11738374_at) / Fold change /veh KIR2DL2 /// KIR2DL4 /// KIR2DL5A /// KIR2DL5B /// KIR2DS1 /// KIR2DS2 /// KIR2DS3 /// KIR2DS4 /// KIR3DL3 /// KIR3DL3 /// KIR3DS1 (11738374_at) / RFU C1QL1 (11718748_at) / Fold change /veh C1QL1 (11718748_at) / RFU TMPRSS4 (11747572_a_at) / Fold change /veh TMPRSS4 (11747572_a_at) / RFU HAMP (11756126_x_at) / Fold change /veh HAMP (11756126_x_at) / RFU RNFT2 (11725882_a_at) / Fold change /veh RNFT2 (11725882_a_at) / RFU NR4A2 (11747474_a_at) / Fold change /veh NR4A2 (11747474_a_at) / RFU ABCC12 (11746883_a_at) / Fold change /veh ABCC12 (11746883_a_at) / RFU TMEM136 (11760407_x_at) / Fold change /veh TMEM136 (11760407_x_at) / RFU CLDN22 /// WWC2 (11732394_at) / Fold change /veh CLDN22 /// WWC2 (11732394_at) / RFU HLA-DPB1 (11760878_x_at) / Fold change /veh HLA-DPB1 (11760878_x_at) / RFU SPINT1 (11716480_a_at) / Fold change /veh SPINT1 (11716480_a_at) / RFU GAP43 (11754022_s_at) / Fold change /veh GAP43 (11754022_s_at) / RFU A4GNT (11735810_at) / Fold change /veh A4GNT (11735810_at) / RFU PRB3 (11715151_x_at) / Fold change /veh PRB3 (11715151_x_at) / RFU TUBB4B (11761932_at) / Fold change /veh TUBB4B (11761932_at) / RFU CAPN14 (11732068_a_at) / Fold change /veh CAPN14 (11732068_a_at) / RFU TMCC2 (11721928_a_at) / Fold change /veh TMCC2 (11721928_a_at) / RFU IRGQ (11745062_a_at) / Fold change /veh IRGQ (11745062_a_at) / RFU FAM174B (11720279_a_at) / Fold change /veh FAM174B (11720279_a_at) / RFU TMPRSS4 (11748680_a_at) / Fold change /veh TMPRSS4 (11748680_a_at) / RFU FAM212B (11763350_a_at) / Fold change /veh FAM212B (11763350_a_at) / RFU PLEKHG5 (11743358_a_at) / Fold change /veh PLEKHG5 (11743358_a_at) / RFU ZSCAN30 (11745921_a_at) / Fold change /veh ZSCAN30 (11745921_a_at) / RFU CMKLR1 (11741424_a_at) / Fold change /veh CMKLR1 (11741424_a_at) / RFU LOC101060620 /// MAPK8IP1 (11723275_at) / Fold change /veh LOC101060620 /// MAPK8IP1 (11723275_at) / RFU SPTSSB (11747773_x_at) / Fold change /veh SPTSSB (11747773_x_at) / RFU PRSS12 (11739890_at) / Fold change /veh PRSS12 (11739890_at) / RFU BIN1 (11741810_x_at) / Fold change /veh BIN1 (11741810_x_at) / RFU WNT11 (11732464_a_at) / Fold change /veh WNT11 (11732464_a_at) / RFU C10orf10 (11716521_a_at) / Fold change /veh C10orf10 (11716521_a_at) / RFU C5orf56 (11738089_at) / Fold change /veh C5orf56 (11738089_at) / RFU CYB561 (11721691_x_at) / Fold change /veh CYB561 (11721691_x_at) / RFU ANKRD19P (11752326_a_at) / Fold change /veh ANKRD19P (11752326_a_at) / RFU OR2T12 /// OR2T33 /// OR2T8 (11738714_s_at) / Fold change /veh OR2T12 /// OR2T33 /// OR2T8 (11738714_s_at) / RFU VCAN (11748164_a_at) / Fold change /veh VCAN (11748164_a_at) / RFU JSRP1 (11732532_at) / Fold change /veh JSRP1 (11732532_at) / RFU KRTAP10-11 (11738290_x_at) / Fold change /veh KRTAP10-11 (11738290_x_at) / RFU MYO3A (11730013_a_at) / Fold change /veh MYO3A (11730013_a_at) / RFU EBF3 (11725865_a_at) / Fold change /veh EBF3 (11725865_a_at) / RFU CAMK2N1 (11719241_x_at) / Fold change /veh CAMK2N1 (11719241_x_at) / RFU C5orf56 (11738088_a_at) / Fold change /veh C5orf56 (11738088_a_at) / RFU OLFML3 (11715873_a_at) / Fold change /veh OLFML3 (11715873_a_at) / RFU LOC100653217 /// NTM (11731650_a_at) / Fold change /veh LOC100653217 /// NTM (11731650_a_at) / RFU MAPK11 (11762145_a_at) / Fold change /veh MAPK11 (11762145_a_at) / RFU FIZ1 (11724087_x_at) / Fold change /veh FIZ1 (11724087_x_at) / RFU OASL (11726364_x_at) / Fold change /veh OASL (11726364_x_at) / RFU SOX15 (11748057_x_at) / Fold change /veh SOX15 (11748057_x_at) / RFU CD79A (11719716_a_at) / Fold change /veh CD79A (11719716_a_at) / RFU HIST1H1D (11736915_at) / Fold change /veh HIST1H1D (11736915_at) / RFU CASKIN2 (11723855_a_at) / Fold change /veh CASKIN2 (11723855_a_at) / RFU LOC730098 (11760151_x_at) / Fold change /veh LOC730098 (11760151_x_at) / RFU OR4N2 (11742367_at) / Fold change /veh OR4N2 (11742367_at) / RFU PRRT2 (11749266_a_at) / Fold change /veh PRRT2 (11749266_a_at) / RFU SNX32 (11753110_a_at) / Fold change /veh SNX32 (11753110_a_at) / RFU CDHR5 (11726645_a_at) / Fold change /veh CDHR5 (11726645_a_at) / RFU RCAN1 (11760418_a_at) / Fold change /veh RCAN1 (11760418_a_at) / RFU FAM167A (11723789_a_at) / Fold change /veh FAM167A (11723789_a_at) / RFU FAM26E (11764081_at) / Fold change /veh FAM26E (11764081_at) / RFU ISYNA1 (11749810_s_at) / Fold change /veh ISYNA1 (11749810_s_at) / RFU ACY1 (11761880_at) / Fold change /veh ACY1 (11761880_at) / RFU 11764098_at / Fold change /veh 11764098_at / RFU SAMD14 (11745864_x_at) / Fold change /veh SAMD14 (11745864_x_at) / RFU NPB (11741838_a_at) / Fold change /veh NPB (11741838_a_at) / RFU TMPRSS6 (11731388_a_at) / Fold change /veh TMPRSS6 (11731388_a_at) / RFU KRTAP10-2 (11738614_at) / Fold change /veh KRTAP10-2 (11738614_at) / RFU ARHGAP8 /// PRR5-ARHGAP8 (11727945_x_at) / Fold change /veh ARHGAP8 /// PRR5-ARHGAP8 (11727945_x_at) / RFU KRTAP5-7 /// NADSYN1 (11734609_at) / Fold change /veh KRTAP5-7 /// NADSYN1 (11734609_at) / RFU RASL12 (11751679_a_at) / Fold change /veh RASL12 (11751679_a_at) / RFU CDKN2B (11736163_a_at) / Fold change /veh CDKN2B (11736163_a_at) / RFU PRF1 (11729649_at) / Fold change /veh PRF1 (11729649_at) / RFU, ZNF638 /// ZNF638-IT1 / Fold change vs veh, ZNF638 /// ZNF638-IT1 / RFU, PANK3 / Fold change vs veh, PANK3 / RFU, SH3YL1 / Fold change vs veh, SH3YL1 / RFU, ZEB2 / Fold change vs veh, ZEB2 / RFU, NRIP1 / Fold change vs veh, NRIP1 / RFU, PTTG1IP / Fold change vs veh, PTTG1IP / RFU, CAPN2 / Fold change vs veh, CAPN2 / RFU, MED14 / Fold change vs veh, MED14 / RFU, SNORA58 / Fold change vs veh, SNORA58 / RFU, C1orf63 / Fold change vs veh, C1orf63 / RFU, LRRFIP1 / Fold change vs veh, LRRFIP1 / RFU, NDUFAF7 / Fold change vs veh, NDUFAF7 / RFU, SLC12A2 / Fold change vs veh, SLC12A2 / RFU, IBTK / Fold change vs veh, IBTK / RFU, ESF1 / Fold change vs veh, ESF1 / Fold change vs veh, TMEM50B / RFU, TAOK1 / Fold change vs veh, TAOK1 / RFU, ACBD3 / Fold change vs veh, ACBD3 / RFU, TMA16 / Fold change vs veh, TMA16 / RFU, RWDD3 / Fold change vs veh, RWDD3 / RFU, BCAT1 / Fold change vs veh, BCAT1 / RFU, EDEM3 / Fold change vs veh, EDEM3 / RFU, TMEM33 / Fold change vs veh, TMEM33 / RFU, WDR75 / Fold change vs veh, WDR75 / RFU, AHCTF1 / Fold change vs veh, AHCTF1 / RFU, TFRC / Fold change vs veh, TFRC / RFU, ZDHHC17 / Fold change vs veh, ZDHHC17 / RFU, NOM1 / Fold change vs veh, NOM1 / RFU, ARL8B / Fold change vs veh, ARL8B / RFU, ZBTB11 / Fold change vs veh, ZBTB11 / RFU, TAMM41 / Fold change vs veh, TAMM41 / RFU, KIAA1704 /// LOC100996395 / Fold change vs veh, KIAA1704 /// LOC100996395 / RFU, ING1 / Fold change vs veh, ING1 / RFU, TRMT61B / Fold change vs veh, TRMT61B / RFU, FUBP3 / Fold change vs veh, FUBP3 / RFU, TP53 / Fold change vs veh, TP53 / RFU, TNKS2 / Fold change vs veh, TNKS2 / RFU, ZFP14 / Fold change vs veh, ZFP14 / RFU, ACTR2 / Fold change vs veh, ACTR2 / RFU, PPP3R1 / Fold change vs veh, PPP3R1 / RFU, PIK3R1 / Fold change vs veh, PIK3R1 / RFU, HNRNPA1 / Fold change vs veh, HNRNPA1 / RFU, RNF170 / Fold change vs veh, RNF170 / RFU, ZNF28 / Fold change vs veh, ZNF28 / RFU, RNGTT / Fold change vs veh, RNGTT / RFU, OGT / Fold change vs veh, OGT / RFU, BRD1 / Fold change vs veh, BRD1 / RFU, MARS / Fold change vs veh, MARS / RFU, ZNF655 / Fold change vs veh, ZNF655 / RFU, FAHD1 / Fold change vs veh, FAHD1 / RFU, BDP1 / Fold change vs veh, BDP1 / RFU, LRRCC1 / Fold change vs veh, LRRCC1 / RFU, ARID1A / Fold change vs veh, ARID1A / RFU, ZNF146 / Fold change vs veh, ZNF146 / RFU, ZNF330 / Fold change vs veh, ZNF330 / RFU, GPN3 / Fold change vs veh, GPN3 / RFU, C9orf123 / Fold change vs veh, C9orf123 / RFU, N4BP2L2 / Fold change vs veh, N4BP2L2 / RFU, ARFIP1 / Fold change vs veh, ARFIP1 / RFU, FAM179B / Fold change vs veh, FAM179B / RFU, BCL10 / Fold change vs veh, BCL10 / RFU, UHRF1BP1L / Fold change vs veh, UHRF1BP1L / RFU, BET1 / Fold change vs veh, BET1 / RFU, CNOT2 / Fold change vs veh, CNOT2 / RFU, ZNF268 / Fold change vs veh, ZNF268 / Fold change vs veh, ZNF507 / RFU, DGCR2 / Fold change vs veh, DGCR2 / RFU, WDSUB1 / Fold change vs veh, WDSUB1 / Fold change vs veh, HSP90B1 /// MIR3652 / RFU, ADSS / Fold change vs veh, ADSS / RFU, GK / Fold change vs veh, GK / RFU, ZNF148 / Fold change vs veh, ZNF148 / RFU, TAF9 / Fold change vs veh, TAF9 / RFU, SLC1A5 / Fold change vs veh, SLC1A5 / RFU, SLMO2 / Fold change vs veh, SLMO2 / RFU, ABCC4 / Fold change vs veh, ABCC4 / RFU, LOC101060439 /// RAP1B / Fold change vs veh, LOC101060439 /// RAP1B / RFU, RFX7 / Fold change vs veh, RFX7 / RFU, GTPBP10 / Fold change vs veh, GTPBP10 / RFU, CNEP1R1 / Fold change vs veh, CNEP1R1 / RFU, BIVM-ERCC5 /// ERCC5 / Fold change vs veh, BIVM-ERCC5 /// ERCC5 / RFU, ILF3 / Fold change vs veh, ILF3 / RFU 11762660_at / Fold change /veh 11762660_at / RFU VCAN (11757783_s_at) / Fold change /veh VCAN (11757783_s_at) / RFU DDX43 (11728927_at) / Fold change /veh DDX43 (11728927_at) / RFU KRT8 (11758188_x_at) / Fold change /veh KRT8 (11758188_x_at) / RFU NKD1 (11759106_at) / Fold change /veh NKD1 (11759106_at) / RFU SRD5A1 (11742802_a_at) / Fold change /veh SRD5A1 (11742802_a_at) / RFU TPSAB1 /// TPSB2 (11721975_s_at) / Fold change /veh TPSAB1 /// TPSB2 (11721975_s_at) / RFU GSTM3 (11746129_a_at) / Fold change /veh GSTM3 (11746129_a_at) / RFU IL23R (11737362_x_at) / Fold change /veh IL23R (11737362_x_at) / RFU TMEM51 (11727254_a_at) / Fold change /veh TMEM51 (11727254_a_at) / RFU PIWIL2 (11732686_x_at) / Fold change /veh PIWIL2 (11732686_x_at) / RFU ORM1 (11744905_x_at) / Fold change /veh ORM1 (11744905_x_at) / RFU CCDC152 (11743942_at) / Fold change /veh CCDC152 (11743942_at) / RFU ECM1 (11717891_a_at) / Fold change /veh ECM1 (11717891_a_at) / RFU IL23R (11748794_a_at) / Fold change /veh IL23R (11748794_a_at) / RFU TNFAIP8L3 (11732012_x_at) / Fold change /veh TNFAIP8L3 (11732012_x_at) / RFU MBOAT4 (11741988_at) / Fold change /veh MBOAT4 (11741988_at) / RFU 11764193_at / Fold change /veh 11764193_at / RFU TMEM53 (11763286_at) / Fold change /veh TMEM53 (11763286_at) / RFU MAGEB2 (11727129_at) / Fold change /veh MAGEB2 (11727129_at) / RFU TMEM200A (11744735_a_at) / Fold change /veh TMEM200A (11744735_a_at) / RFU CCDC152 (11751479_a_at) / Fold change /veh CCDC152 (11751479_a_at) / RFU FAM211A (11726209_a_at) / Fold change /veh FAM211A (11726209_a_at) / RFU RGS16 (11746705_a_at) / Fold change /veh RGS16 (11746705_a_at) / RFU VCAN (11755009_s_at) / Fold change /veh VCAN (11755009_s_at) / RFU RHOB (11743442_s_at) / Fold change /veh RHOB (11743442_s_at) / RFU RGS16 (11720943_a_at) / Fold change /veh RGS16 (11720943_a_at) / RFU RGS16 (11720944_at) / Fold change /veh RGS16 (11720944_at) / RFU, VPS4B / Fold change vs veh, VPS4B / RFU, CREB1 / Fold change vs veh, CREB1 / RFU, DNAJC13 / Fold change vs veh, DNAJC13 / RFU, GNAQ / Fold change vs veh, GNAQ / RFU, CDK5R1 / Fold change vs veh, CDK5R1 / RFU, ZRANB3 / Fold change vs veh, ZRANB3 / RFU, CUL4A / Fold change vs veh, CUL4A / RFU, CCNY / Fold change vs veh, CCNY / RFU, UFL1 / Fold change vs veh, UFL1 / RFU, COG3 / Fold change vs veh, COG3 / RFU, DIAPH2 / Fold change vs veh, DIAPH2 / RFU, SKA2 / Fold change vs veh, SKA2 / RFU, AFF3 / Fold change vs veh, AFF3 / RFU, LMF1 / Fold change vs veh, LMF1 / RFU, IPO11 / Fold change vs veh, IPO11 / RFU, DFFB / Fold change vs veh, DFFB / RFU, FOXP1 / Fold change vs veh, FOXP1 / RFU, CARD8 / Fold change vs veh, CARD8 / RFU, STRN3 / Fold change vs veh, STRN3 / RFU, ADK / Fold change vs veh, ADK / RFU, RASSF2 / Fold change vs veh, RASSF2 / RFU, WIPF1 / Fold change vs veh, WIPF1 / RFU, LARP1B / Fold change vs veh, LARP1B / RFU, RASA1 / Fold change vs veh, RASA1 / RFU, RB1 / Fold change vs veh, RB1 / RFU, PPFIA1 / Fold change vs veh, PPFIA1 / RFU, MAT2A / Fold change vs veh, MAT2A / RFU, CCT5 / Fold change vs veh, CCT5 / RFU, WDR92 / Fold change vs veh, WDR92 / RFU, CUX1 / Fold change vs veh, CUX1 / RFU, TTC7A / Fold change vs veh, TTC7A / RFU, TMEM135 / Fold change vs veh, TMEM135 / RFU, DEPTOR / Fold change vs veh, DEPTOR / RFU, CPM / Fold change vs veh, CPM / RFU, DNAJB6 / Fold change vs veh, DNAJB6 / RFU, CACNA2D3 / Fold change vs veh, CACNA2D3 / RFU, DTX4 / Fold change vs veh, DTX4 / RFU, TFCP2 / Fold change vs veh, TFCP2 / RFU, GMCL1 /// GMCL1P1 / Fold change vs veh, GMCL1 /// GMCL1P1 / RFU, AEBP2 / Fold change vs veh, AEBP2 / RFU, SNHG1 /// SNORD22 /// SNORD25 /// SNORD26 /// SNORD27 /// SNORD28 /// SNORD29 /// SNORD31 / Fold change vs veh, SNHG1 /// SNORD22 /// SNORD25 /// SNORD26 /// SNORD27 /// SNORD28 /// SNORD29 /// SNORD31 / Fold change (Aza/veh), C12orf56 (ProbeSet 11735607_a_at) / Fold change (ACY-1035/veh), C12orf56 (ProbeSet 11735607_a_at) / Fold change (Aza/veh), FGFR1OP (ProbeSet 11751329_s_at) / Fold change (ACY-1035/veh), FGFR1OP (ProbeSet 11751329_s_at) / Fold change (Aza/veh), VPS36 (ProbeSet 11739960_a_at) / Fold change (ACY-1035/veh), VPS36 (ProbeSet 11739960_a_at) / RFU SYPL1 (11715823_x_at) / Fold change /veh SYPL1 (11715823_x_at) / RFU IGFBP7 (11715501_s_at) / Fold change /veh IGFBP7 (11715501_s_at) / RFU REEP3 (11722064_at) / Fold change /veh REEP3 (11722064_at) / RFU IGLL1 (11728026_x_at) / Fold change /veh IGLL1 (11728026_x_at): dose or concentration left out as unconfirmed. Conditions: MV-4-11 cells, 48 hours.

As for `Nc1ccc(-c2cccs2)cc1NC(=O)c1ccc2c(c1)cc(C1CC1)n2CCN1CCOCC1` [ACY-1035], the “Fold change /veh NR4A2 (11747474_a_at)” value is 0.99.
